Consider 2 compounds from patent US20250042894A1, “PROTEIN TYROSINE PHOSPHATASE INHIBITORS AND METHODS OF USE THEREOF” (Calico Life Sciences LLC, priority 2021, published 2025).

The structures appear in SMILES notation. Read-outs that look alike come from different tables or passages of the source.

Assay [1] concerns the target T1, His tagged PTPN2 (TC45) protein (Homo sapiens, UniProt P17706).
T1 construct: His; made in house
T1 sequence (P17706 1-387 isoform P17706-2): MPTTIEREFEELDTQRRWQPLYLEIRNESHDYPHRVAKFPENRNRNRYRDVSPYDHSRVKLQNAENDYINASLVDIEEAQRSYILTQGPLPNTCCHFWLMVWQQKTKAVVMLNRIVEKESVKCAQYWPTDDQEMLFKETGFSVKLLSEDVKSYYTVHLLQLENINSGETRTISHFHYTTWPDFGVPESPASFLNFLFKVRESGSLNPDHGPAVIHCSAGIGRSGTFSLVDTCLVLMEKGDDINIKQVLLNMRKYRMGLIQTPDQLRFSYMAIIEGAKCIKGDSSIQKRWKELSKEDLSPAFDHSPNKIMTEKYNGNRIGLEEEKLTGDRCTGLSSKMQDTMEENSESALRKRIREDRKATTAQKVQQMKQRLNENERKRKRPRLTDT
Put plainly: Mobility Shift Assay (MSA) for PTPN2 inhibitors. It counts as biochemical. Particulars: for Thiochromane x-fold>potency biochemical: Table 3, PTPN2 MSA IC50 of chromane comparator over thiochromane; for IC50: enzyme 0.5 nM, substrate 2 μM, 10 minutes preincubation at room temperature. The procedure, abridged: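 Enzyme (0.5 nM) preincubated 10 min at RT with compound (12-point, 1:3 dilution) in 50 mM HEPES pH 7.5, 10 mM EDTA, 2 mM DTT; OG488-labelled phospho-insulin-receptor peptide substrate (2 μM) then added for 10 min. After quench, dephosphorylation measured by microfluidic mobility shift (ex 488/em 530 nm); IC50 from % inhibition.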

The target in assay [2] is T2, His tagged full-length PTPN1 protein (Homo sapiens, UniProt P18031).
T2 construct: His; made in house
T2 sequence (P18031 1-435): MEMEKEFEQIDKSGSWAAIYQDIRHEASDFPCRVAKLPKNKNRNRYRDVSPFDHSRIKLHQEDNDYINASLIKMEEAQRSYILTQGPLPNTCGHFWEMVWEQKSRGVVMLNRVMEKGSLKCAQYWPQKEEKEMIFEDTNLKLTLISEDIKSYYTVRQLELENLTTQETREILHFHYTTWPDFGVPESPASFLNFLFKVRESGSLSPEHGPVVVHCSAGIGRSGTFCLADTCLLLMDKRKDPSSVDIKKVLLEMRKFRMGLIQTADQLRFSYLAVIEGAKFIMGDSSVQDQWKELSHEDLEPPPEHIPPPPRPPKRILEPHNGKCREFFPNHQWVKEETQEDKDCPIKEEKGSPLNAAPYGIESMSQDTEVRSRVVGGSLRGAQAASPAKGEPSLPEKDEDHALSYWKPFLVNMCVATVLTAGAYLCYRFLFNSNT
The experiment in a line: Mobility Shift Assay (MSA) for PTPN1 inhibitors. The assay is classed as biochemical. To be noted: enzyme 0.5 nM, substrate 2 μM, 10 minutes preincubation at room temperature. The procedure, abridged: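 Full-length His-tagged human PTPN1 (0.5 nM) was pre-incubated 10 min at RT with compound (12-point, 1:3) in HEPES pH 7.5 buffer with EGTA, EDTA, Tween-20 and DTT. Fluorescent phospho-insulin-receptor peptide (2 μM) was then added for 10 min. After quench, dephosphorylation was measured by microfluidic mobility shift, and IC50 was taken from % inhibition.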

The test system of assay [3] is IFNγ-induced STAT1 phosphorylation (pSTAT1) in B16F10 cells. Put plainly: B16F10 Phospho-STAT1 HTRF proximal pharmacodynamic (PD) assay. It counts as cell-based, murine. To be noted: for EC50: B16-F10; for Thiochromane x-fold>potency cellular: pSTAT1 EC50 of chromane comparator over thiochromane. The procedure, abridged:
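Murine B16F10 melanoma cells dosed 3 h at 37 °C (10-point, 3-fold dilution from 50 μM top dose), then stimulated 10 min with recombinant mouse IFNγ (100 nM final) and stopped with 3.3 μM staurosporine for 1 h. pSTAT1 in lysates detected by HTRF (Eu cryptate/d2 antibodies, 3 h RT, 665 nm emission); EC50 from dose-response curves.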
Background: In TR-FRET formats the signal depends on donor and acceptor labels being close together.

The mark [4] stands for this setting: Table 2, 3 hours compound, then mouse IFNγ 100 nM 10 minutes, top dose 50 μM, read-out: B16F10 IFNγ Induced pSTAT1 EC50.
[5] abbreviates: Mus musculus, Table 3, B16F10 cells, IFNγ-induced, thiochromanes (X = S) and chromane comparators (X = O), read-out: pSTAT1 EC50.

As to `CC1=C(CCN[C@@H]2CSc3cc(O)c(N4CC(=O)NS4(=O)=O)c(F)c3C2)C(C)(C)CCC1` [Compound 140, 5-[(3S)-5-fluoro-7-hydroxy-3-{[2-(2,6,6-trimethylcyclohex-1-en-1-yl)ethyl]amino}-3,4-dihydro-2H-1-benzothiopyran-6-yl]-1λ^6,2,5-thiadiazolidine-1,1,3-trione], the “Thiochromane x-fold>potency biochemical” value in assay [1] turned out to be 1.5. The IC50 in assay [1] and in assay [2] was 0.01 to 0.1 µM in each case. The EC50 in assay [3] (setting [4]) and in assay [3] (setting [5]) was 2.95 µM in each case. Also, in assay [3] (Table 3), the “Thiochromane x-fold>potency cellular” value is listed as >16.9.

For `CC(C)(C)OC(=O)N1CCC(CN[C@@H]2CSc3cc(O)c(N4CC(=O)NS4(=O)=O)c(F)c3C2)CC1` [Compound 141, tert-butyl 4-({[(3S)-5-fluoro-7-hydroxy-6-(1,1,4-trioxo-1λ^6,2,5-thiadiazolidin-2-yl)-3,4-dihydro-2H-1-benzothiopyran-3-yl]amino}methyl)piperidine-1-carboxylate], the “Thiochromane x-fold>potency biochemical” value in assay [1] was determined as 1.0. Further, the IC50 in assay [1] and in assay [2] was 0.01 to 0.1 µM throughout. The EC50 in assay [3] (setting [4]) and in assay [3] (setting [5]) was 6.97 µM each time. Moreover, the “Thiochromane x-fold>potency cellular” value in assay [3] (Table 3) is reported as >7.2.

One may read the IC50 as the concentration that inhibits the measured activity by half. The term EC50 denotes the concentration at which the effect is half-maximal.
